# Measurements: patent US4696920A, “Certain 2-substituted 1,3-propylidenediphosphonate derivatives, pharmaceutical compositions containing them and their use as antihypertensive agents” (priority 1984, dated 1987)
# Read-outs that look alike come from different tables or passages of the source.
# Key:
# [1] = test system: calcium channel binding site for [^3 H]-Nitrendipine (rat brain membranes); assay: [^3 H]-Nitrendipine binding to rat brain membranes; parameters: species or system rat (male Wistar); settings: for Specifically bound [^3 H]-Nitrendipine % of control value: compound concentration 1.0 μM; for Specifically bound [^3 H]-Nitrendipine % of control value / Bound ^3 H at 1.0 μM / Bound ^3 H at 0.1 μM / modulation of [^3 H]-Nitrendipine binding (in words): Table 1a; for Bound ^3 H at 1.0 μM / Bound ^3 H at 0.1 μM: ratio of [^3 H]-Nitrendipine bound at 1.0 and 0.1 μM compound
# Description: Diltiazem hydrochloride was a generous gift from Goedecke A. G.
# Suitable dilutions were made in 50 mM Tris-HCl buffer (pH 7.4) containing 150 mM NaCl and 1 mM CaCl2. The ethanol concentration in the final assay never exceeded 0.1%.
# The purity of the radioligand and of the various agents tested was monitored by thin layer chromatography on silica gel plates.
# The following procedure was adapted from Bellemann et al (Proc. Nat. Acad. Sci. 80, 2356, 1983), and Gould et al (Proc. Nat. Acad. Sci. 79, 3656, 1982).
# Adult male Wistar rats weighing 250-300 g were anesthetized with carbon dioxide prior to decapitation. The brain was removed then immersed in ice-cold 0.32M sucrose and washed 2-3 times with fresh solution. Cerebral cortex was minced and homogenized (Potter-Elvehjem homogenizer) in 10 volumes of ice-cold sucrose solution. The homogenate was centrifuged (4° C.) at 1000×g for 15 minutes. The resulting supernatant was then centrifuged at 90000×g (30 minutes) and the pellet was washed twice with 20 ml ice-cold 50 mM Tris-HCl pH 7.4.
# The final pellet was resuspended in 50 mM Tris-HCl pH 7.4/150 mM NaCl/1 mM CaCl2 to give a protein concentration of 4 mg/ml.
# The membrane suspension was kept on ice until used. Binding assays were performed in subdued light to prevent dihydropyridine breakdown. Membrane protein (400 μg/tube) was incubated in 50 mM Tris-HCl buffer (pH 7.4)/150 mM NaCl/1 mM CaCl2 with the indicated concentrations of radioligand and test compounds or known calcium antagonists, in a total volume of 2 ml. After the indicated time intervals, the reaction was terminated by rapid filtration through Whatman GF/B glass fiber filters (2.4 cm diameter) on a Millipore filter holder. The assay tube was rinsed with 2 ml ice-cold 50 mM Tris-HCl pH (7.4) and the precipitate was further washed with 2×5 ml of the same buffer.
# Filters were dried under a heat lamp and were extracted with 10 ml of liquid scintillation cocktail (Toluene/Triton X-100, 2/1 containing 4 g Omnifluor/1) prior to tritium determination at 48% counting efficiency.
# Assays were performed in duplicate or triplicate.
# Data were expressed as percent specific [^3 H]-Nitrendipine binding relative to the established control value.
# Compound activity in the [^3 H]-Nitrendipine binding assay was evaluated by using the following criteria:
# 1. [^3 H]-Nitrendipine binding at 1.0 μM compound final concentration was either below 95% or above 105% of the control value determined in absence of compound.
# 2. […] This ratio is indicative of a dose response relationship within the compound concentration range tested, when the value differs appreciably from 1.0.
# [2] = test system: rat trachea contraction induced by KCl depolarization; assay: KCl-induced rat trachea contraction; parameters: species or system rat (male SHR, Okamoto-Aoki); settings: for activity at 1 µM: Rattus norvegicus, 40 min, read-out: Contraction (% max.)
# Description: Spontaneously hypertensive male rats (SHR) Okamoto-Aoki Strain, weighing 300-400 g were used in this study. They were killed by bleeding after Pentobarbital anesthesia (Nembutal, Abbott Co, 40 mg/kg). Their entire trachea was quickly removed and dissected free of fat and connective tissue in Krebs-Ringer solution. A strip (4 mm×40 mm), obtained by spirally cutting the trachea, was immediately suspended in a 50 ml Krebs-Ringer solution and continuously bubbled with a O2 /CO2 (95/5) mixture. Bath temperature was maintained at 37±1° C. The composition (mM) of the Krebs-Ringer solution modified by Nghiem, was as follows: NaCl, (118.0); KCl, (4.7); CaCl2, (2.5); MgCl2, (1.18); NaHCO3, (12.5); KH2 P04, (1.18); glucose, (5.5) in bidistilled water (pH 7.4). Each strip was equilibrated under initial tension (1.5-2 g) for 1-2 hours and the bath solution changed every 30 min. A contractile or relaxant response was isometrically measured with a force-displacement transducer (Ugo-Basile) and recorded on a polygraph (Beckman).
# After equilibration, KCl was added to the bath at 65 mM final concentration. This concentration produced maximum trachea contraction. Under these conditions, a plateau phase showing a tonic sustained contraction was reached within 30 minutes. Drugs were added 30 minutes after the plateau phase has been reached (final concentration=1.0 μM). […] Recordings of the residual trachea contraction were made 40 minutes after drug addition to the bathing fluid. The initial KCl induced contraction was taken as the maximum KCl response (100%). Results were expressed as % of maximal contraction. Nifedipine, Prenylamine, Flunarizine and Diltiazem were used as reference standards to validate this assay.
# All 1,3-diphosphonates and drugs were dissolved in saline (0.9% NaCl) except when water insoluble, then the compounds were dissolved in 2% ethanol. The final concentration of ethanol used has been shown not to interfere with the assay.
# Results are expressed as mean values±SEM, the Student's t-test was used for statistical analysis.
# [3] = final concentration 1.0 μM, 65 mM KCl, 40 minutes after drug addition, mean ± SEM
% [^3 H]-Nitrendipine bound ([1]; reference standards at 1 μM),Structure (SMILES),Specifically bound [^3 H]-Nitrendipine % of control value [1],Bound ^3 H at 1.0 μM / Bound ^3 H at 0.1 μM [1],"activity at 1 µM [2, 3]",activity at 1 µM [2],activity on KCl-induced trachea contraction (in words) ([2]; final concentration 1.0 μM),modulation of [^3 H]-Nitrendipine binding (in words) [1]
,COP(=O)(CC(CCc1ccccc1)CP(=O)(OC)OC)OC [Compound 11],96 % of control value,1.024,,,,
,"CCCCCOP(=O)(CC(CCCc1ccccc1)CP(=O)(OCCCCC)OCCCCC)OCCCCC [Compound 112, Tetrapentyl 2-(3-phenylpropyl)-1,3-propylidenediphosphonate]",0 % of control value,0.645,84 ± 3%,,,
,CCOP(=O)(CC(CP(=O)(OCC)OCC)C(c1ccccc1)c1ccccc1)OCC [Compound 39],110 % of control value,1.220,,96 ± 4.9%,,
,CCCCOP(=O)(CC(Cc1ccncc1)CP(=O)(OCCCC)OCCCC)OCCCC [Compound 87],93 % of control value,0.967,,71.9 ± 1.9%,potent pharmacological activity,
,"COP(=O)(CC(Cc1ccccc1)CP(=O)(OC)OC)OC [Compound 10, Tetramethyl 2-benzyl-1,3-propylidenediphosphonate]",92 % of control value,0.983,,91%,,
,CCOP(=O)(CC(Cc1ccc(-c2ccccc2)cc1)CP(=O)(OCC)OCC)OCC [Compound 38],60 % of control value,0.721,,84 ± 2.4%,potent pharmacological activity,strong inhibitors
,"CCCCCCOP(=O)(CC(CCCc1ccccc1)CP(=O)(OCCCCCC)OCCCCCC)OCCCCCC [Compound 113, Tetrahexyl 2-(3-phenylpropyl)-1,3-propylidenediphosphonate]",20 % of control value,0.621,90 ± 1.5%,,,strong inhibitors
,CCCCOP(=O)(CC(CP(=O)(OCCCC)OCCCC)C(c1ccccc1)c1ccccc1)OCCCC [Compound 85],112 % of control value,1.082,,96.2 ± 0.8%,,
,O=P(O)(O)CC(CCCc1ccccc1)CP(=O)(O)O [Compound 4],99 % of control value,0.957,,,,
,CCCCOP(=O)(CC(Cc1ccc(-c2ccccc2)cc1)CP(=O)(OCCCC)OCCCC)OCCCC [Compound 84],80 % of control value,0.886,,98.5 ± 2.5%,,
,"CCCCOP(=O)(CC(CCCC1CCCCC1)CP(=O)(OCCCC)OCCCC)OCCCC [Compound 68, Tetrabutyl 2-(3-Cyclohexylpropyl)-1,3-propylidenediphosphonate]",0 % of control value,0.000,,100 ± 4%,,strong inhibitors
,"O=P(O)(O)CC(Cc1ccccc1)CP(=O)(O)O [Compound 2, 2-Benzyl-1,3-propylidenediphosphonic acid]",98 % of control value,1.002,,,,
,O=P(O)(O)CC(CCc1ccccc1)CP(=O)(O)O [Compound 3],94 % of control value,0.955,,,,
,O=P(O)(O)CC(Cc1ccc(Cl)cc1)CP(=O)(O)O [Compound 5],99 % of control value,1.003,,,,
,CCCCOP(=O)(CC(CP(=O)(OCCCC)OCCCC)c1ccccn1)OCCCC [Compound 86],98 % of control value,1.052,,89 ± 2%,,
,CCOP(=O)(CC(CP(=O)(OCC)OCC)c1ccccn1)OCC [Compound 40],100 % of control value,0.978,,61.2 ± 4.6%,potent pharmacological activity,
,CCCCOP(=O)(CC(CCCc1cccnc1)CP(=O)(OCCCC)OCCCC)OCCCC [Compound 88],69 % of control value,0.760,,56.3 ± 5.9%,potent pharmacological activity,strong inhibitors
,CCCCCC(CP(=O)(OCCCC)OCCCC)CP(=O)(OCCCC)OCCCC [Compound 66],26 % of control value,0.387,,88.5 ± 0.5%,,strong inhibitors
,CC(C)OP(=O)(CC(CCCc1ccccc1)CP(=O)(OC(C)C)OC(C)C)OC(C)C [Compound 56],115 % of control value,1.115,,100%,,activators
,"CCCCCOP(=O)(CC(CCCc1ccccc1)CP(=O)(OCC)OCCCCC)OCC (stereo not drawn) [Compound 117, Bis(ethyl, pentyl) 2-(3-phenylpropyl)-1,3-propylidenediphosphonate]",79 % of control value,0.950,,60 ± 4%,potent pharmacological activity,strong inhibitors
,CC(C)COP(=O)(CC(CCCc1ccccc1)CP(=O)(OCC(C)C)OCC(C)C)OCC(C)C [Compound 111],57 % of control value,0.809,100 ± 1.5%,,,
95%,"CCN(CC)CCCCCCCCOC(=O)c1cc(OC)c(OC)c(OC)c1 [TMB-8, reference compound]",,,,,,
,CCOP(=O)(CC(Cc1cccc2ccccc12)CP(=O)(OCC)OCC)OCC [Compound 37],104 % of control value,1.011,,53.8 ± 0.4%,potent pharmacological activity,
